Read-outs that look alike come from different tables or passages of the source.
What was measured:
[1] = Pharmacokinetics after intravenous or oral administration; format: in vivo, mice; settings: intravenous administration
[2] = Stability in plasma, whole blood, gastric fluid and intestinal fluid; format: in vitro ADME; settings: plasma or whole blood
Description: Ala-d4T-MP is stable both in plasma and in whole blood. […] This hypothesis is consistent with the formation of a significant amount of d4T after incubation of d4T-5′-[p-bromophenyl methoxyalaninyl phosphate] with a liver homogenate.
Orally administered d4T-5′-[p-bromophenyl methoxyalaninyl phosphate] also yielded Ala-d4T-MP and d4T as the major metabolites. […] This metabolite can be absorbed in the intestine and then further metabolized to yield d4T in the blood. The tmax and t1/2 values for d4T in mice were longer when derived from orally administered d4T-5′-[p-bromophenyl methoxyalaninyl phosphate] (42.4 minutes and 99.0 minutes, respectively) than from orally administered d4T (5 minutes and 18 minutes, respectively). The tmax value is higher but the t1/2 value is lower for orally administered d4T-5′-[p-bromophenyl methoxyalaninyl phosphate] compared to intravenously administered d4T-5′-[p-bromophenyl methoxyalaninyl phosphate]. […] However, the bioavailability of d4T metabolized from d4T-5′-[p-bromophenyl methoxyalaninyl phosphate] (48%) was lower than that of orally administered d4T (98%).

[3] = system: AZT- and NNI-resistant HIV-1 (strain: RTMDR-1); assay: Inhibition of RTMDR-1 (HIV-MDR) replication in PBMNC (RT activity); format: cell-based
Description: (§1) Cellular Assays of Anti-HIV Activity and Cytotoxicity. […] Percent viral inhibition was calculated by comparing the RT activity values from the test substance-treated infected cells with RT values from untreated infected cells (i.e., virus controls).

[4] = Microculture tetrazolium assay (MTA) cytotoxicity in CEM cells; settings: human
Description: (§2) Percent inhibition of viral replication was calculated by comparing the p24 and RT activity values from the test substance-treated infected cells with those from untreated infected cells. In parallel, the cytotoxicity of the compounds was examined using a microculture tetrazolium assay (MTA) of cell proliferation, as described.in the Zarling, Enrice, and Uckun articles Supra).
as §1

HIV-2 (Strain: CBL-20) = assay: Inhibition of HIV-2 replication in PBMNC (RT activity); format: cell-based
Description: (P-AZT) and with AZT. The incubation and analysis methods used were as described above for Example 3.
as §1

[5] = Microculture tetrazolium assay (MTA) cytotoxicity in PBMNC; settings: human
Description: as §2, §1
(§3) Antiviral susceptibility assays. Phenotypic drug susceptibility studies of HIV-1 isolates and strains were performed by measuring the production of the p24 gag protein in peripheral blood mononuclear cells (PBMC) from seronegative healthy volunteers in the presence of increasing concentrations of the anti-HIV agent using the quantitative Coulter HIV-1 p24 antigen ezyme immunoassay (EIA) and HIV-1 p24 Antigen Kinetic Standard (Beckman Coulter), as previously described (Uckun, 1998, Antimicrobial Agents and Chemotherapy 37(4): 835-38). Informed consent was obtained from the blood donors according to DHHS guidelines using consent forms approved by the Institutional Review Board. In brief, PBMC were cultured for 72 h in RPMI 1640 medium (Gibco) supplemented with 20% (vol/vol) heat-inactivated fetal bovine serum, 5% human interleukin-2 (Zeptometrix), 2 mM L-glutamine, 25 mM HEPES, 2 g/L NaHCO3, 100 U/ml penicillin/streptomycin (Gibco), 50 μg/ml gentamicin (Gibco), and 5 μg/ml phytohemagglutinin-P (PHA-P) (Sigma) for 24-72 hours prior to exposure to HIV at a multiplicity of infection of 0.001-0.1 during a 1-h adsorbtion period at 37±1° C. in a humidified 5-7% CO2 atmosphere. Subsequently, cells were cultured in 96-well microtiter plates (100 μl/well; 2×10^6 cells/ml, triplicate wells) in the presence of the anti-HIV agents at 6-7 different concentrations ranging from 0.0001 μM to 100 μM, and 25 μL aliquots of culture supernatants were removed from the wells on day 6 after infection for p24 EIA, as previously described (Uckun, 1998, Antimicrobial Agents and Chemotherapy, 37(4):835-38). Controls included uninfected and untreated cells (background control) and infected but untreated (virus control) cells. The p24 EIA utilizes a murine monoclonal antibody to HIV core protein used to coat microwell strips to which the antigen present in the test culture supernatant samples binds. Percent inhibition of viral replication was calculated by comparing the p24 values from the test substance-treated infected cells with p24 values from untreated infected cells (i.e., virus controls). The IC50 values were determined using the Statview statistics program (SAS Institute, Inc.). In parallel, the effects of various treatments on cell viability were also examined as previously described (Uckun, 1998, Antimicrobial Agents and Chemotherapy, 42:383-388). In brief, noninfected PBMC were treated with each compound for 5 days under identical experimental conditions. A microculture tetrazolium assay (MTA) was performed to quantitate cellular proliferation (Uckun, 1998, Antimicrobial Agents and Chemotherapy, 42:383-388).
In parallel, the cytotoxicity of the compounds was examined using a microculture tetrazolium assay (MTA) of cell proliferation, as described (in the Zarling, Enrice, and Uckun articles Supra).

[6] = system: HIV-1 (HTLVIIIB) in TK-deficient CEM T-cells; assay: Inhibition of HIV-1 replication in TK-deficient CEM T-cells (p24 / RT activity); format: cell-based
Description: as §2, §1

HIV-1 (strain: HTLVIIIB) = assay: microbe, parasite or virus in culture; format: cell-based; settings: Human immunodeficiency virus 1, read-out: PBMNC IC50 [RT], PBMNC; unit not given in Table 5 (0.04 = 40 nM)
Description: as §2, §1

HIV-1 HTLVIIIB = assay: microbe, parasite or virus in culture
Description: In vitro assays of anti-HIV-1 activity. Normal human peripheral blood mononuclear cells (PBMNC) from HIV-negative donors were cultured 72 hours in RPMI 1640 supplemented with 20% (v/v) heat-inactivated fetal bovine serum (FBS), 3% interleukin-2, 2 mM L-glutamine, 25 mM HEPES, 2 g/L NaHCO3, […], and […] prior to exposure to HIV-1 at a multiplicity of infection (MOI) of 0.1 during a 1 hour adsorption period at 37° C. in a humidified 5% CO2 atmosphere. Subsequently, cells were cultured in 96-well microtiter plates ([…]; 2×10^6 cells/mL) in the presence of various concentrations of d4T phosphoramidates and aliquots of culture supernatants were removed from the wells on the 7th day after infection for p24 antigen assays, as previously described (Uckun et al., 1998, Antimicrobial Agents and Chem., 42(2):383-388). The applied p24 enzyme immunoassay (EIA) was the unmodified kinetic assay commercially available from Coulter Corporation/Immunotech, Inc. (Westbrooke, Me.), which utilizes a murine mAb to HIV core protein coated onto microwell strips to which the antigen present in the test culture supernatant samples binds. Percent viral inhibition was calculated by comparing the p24 values from untreated infected cells (i.e., virus controls).
The anti-HIV activity of the compounds was examined by evaluating their ability to inhibit HIV replication in peripheral blood mononuclear cells using previously described procedures (Uckun et al., 1998, Antimicrobial Agents and Chem., 42(2):383-388). Percent inhibition of viral replication was calculated by comparing the p24 antigen levels from the test substance-treated infected cells with those from vehicle-treated infected cells.
as §3, with “Inc.).” for “Inc.). In parallel, the effects of various treatments on cell viability were also examined as previously described (Uckun, 1998, Antimicrobial Agents and Chemotherapy, 42:383-388). In brief, noninfected PBMC were treated with each compound for 5 days under identical experimental conditions. A microculture tetrazolium assay (MTA) was performed to quantitate cellular proliferation (Uckun, 1998, Antimicrobial Agents and Chemotherapy, 42:383-388).”

[7] = Human immunodeficiency virus 1, PBMC

Structure (SMILES): Cc1cn([C@H]2C=C[C@@H](COP(=O)(O)NC(C)C(=O)O)O2)c(=O)[nH]c1=O (stereo partly drawn) [Ala-d4T-MP, alaninyl-d4T-monophosphate]
- elimination half-life (t1/2) of the administered substance [1]: 28.5 min
- stability in plasma and whole blood [2]: stable

Structure (SMILES): COC(=O)C(C)NP(=O)(OC[C@H]1O[C@@H](n2cc(C)c(=O)[nH]c2=O)CC1N=[N+]=[N-])Oc1ccc(Br)cc1 (stereo partly drawn) [Compound 5c, AZT-5′-(para-bromophenylmethoxyalaninyl phosphate)]
- IC50 ([3]; Human immunodeficiency virus 1, read-out: HIV-MDR IC50 [RT]): 1.5 µM
- IC50 ([3]; Human immunodeficiency virus 1, read-out: IC50 against HIV-MDR): 1.5 µM
- IC50 ([3]; Human immunodeficiency virus 1, read-out: RTMDR-1 IC50 [RT]): 1.5 µM
- antiviral activity against RTMDR-1 (in words) ([3]; PBMNC): not effective
- IC50 [4]: > 10 µM
- IC50 (HIV-2 (Strain: CBL-20); Human immunodeficiency virus 2, read-out: HIV-2 IC50 [RT]): 3.9 µM
- antiviral activity against HIV-2 (in words) (HIV-2 (Strain: CBL-20); PBMNC): not effective
- IC50 at 5 days [5]: > 10 µM
- IC50 ([6]; Human immunodeficiency virus 1, CCRF-CEM, TK-deficient CEM cells, read-out: IC50 value for inhibition of RT activity): 0.04 µM
- IC50 ([6]; Human immunodeficiency virus 1, T-cell, TK-deficient CEM T-cells, Table 5, read-out: CEM IC50 [RT]): 0.04 µM
- times more effective than AZT in inhibiting HIV replication ([6]; TK-deficient CEM cells): 5 times
- IC50 (HIV-1 (strain: HTLVIIIB)): 0.004 µM

Structure (SMILES): Cc1c(O)cccc1C(=O)N[C@@H](CSc1ccccc1)[C@H](O)CN1C[C@H]2CCCC[C@H]2C[C@H]1C(=O)NC(C)(C)C [nelfinavir]
- SI(CC50/IC50) (HIV-1 HTLVIIIB): 583
- IC50 (HIV-1 HTLVIIIB; [7]): 0.006 ± 0.003 µM
- IC90 (HIV-1 HTLVIIIB; [7]): 0.084 ± 0.038 µM
- CC50 at 5 days [5]: 3.5 ± 1.4 µM

— patent US20070015733A1, “Aryl Phosphate Derivatives of d4T having Activity Against Resistant HIV Strains” (Parker Hughes Institute, priority 1998, published 2007)
